Test results as given in ChEMBL document CHEMBL5136977, “Discovery of 1-(5-(1H-benzo[d]imidazole-2-yl)-2,4-dimethyl-1H-pyrrol-3-yl)ethan-1-one derivatives as novel and potent bromodomain and extra-terminal (BET) inhibitors with anticancer efficacy” (Eur J Med Chem, 2022).

Legend:
[1] = tested on: MV4-11; assay: Antiproliferative activity against human MV4-11 cells assessed as cell growth inhibition incubated for 72 hrs by CellTiter-Glo assay; type: functional, cell-based; details: MV4-11, 72 h
[2] = tested on: MV4-11; assay: Antiproliferative activity against human MV4-11 cells assessed as cell growth inhibition at 1 uM incubated for 72 hrs by CellTiter-Glo assay relative to control; type: functional
[3] = target: T1, Bromodomain-containing protein 4 (Homo sapiens, UniProt O60885); assay: Inhibition of recombinant his tagged BRD4 BD1 (unknown origin) at 2 uM by Alpha screen assay relative to control
[4] = target: T1, Bromodomain-containing protein 4; assay: Inhibition of Alexa647 labelled MS417 binding to his tagged BRD4 BD1 (unknown origin) by TR-FRET assay
[5] = tested on: HL-60(TB); assay: Antiproliferative activity against human HL-60(TB) cells assessed as cell growth inhibition measured after 72 hrs by CellTiter-Glo assay; type: functional
[6] = tested on: NCI-H522; assay: Antiproliferative activity against human NCI-H522 cells assessed as cell growth inhibition measured after 72 hrs by CellTiter-Glo assay; type: functional
[7] = tested on: HCT-15; assay: Antiproliferative activity against human HCT-15 cells assessed as cell growth inhibition measured after 72 hrs by CellTiter-Glo assay; type: functional
[8] = tested on: SNB-75; assay: Antiproliferative activity against human SNB-75 cells assessed as cell growth inhibition measured after 72 hrs by CellTiter-Glo assay; type: functional
[9] = tested on: UACC-62; assay: Antiproliferative activity against human UACC-62 cells assessed as cell growth inhibition measured after 72 hrs by CellTiter-Glo assay; type: functional
[10] = tested on: CAKI-1; assay: Antiproliferative activity against human CAKI-1 cells assessed as cell growth inhibition measured after 72 hrs by CellTiter-Glo assay; type: functional
[11] = tested on: MDA-MB-468; assay: Antiproliferative activity against human MDA-MB-468 cells assessed as cell growth inhibition measured after 72 hrs by CellTiter-Glo assay; type: functional
[12] = tested on: MV4-11; assay: Antitumor activity against human MV4-11 cells xenografted BALB/c nude mouse model assessed as tumor growth inhibition at 20 mg/kg, po QD administered for 28 consecutive days; type: functional; details: MV4-11, 672 h, time 28 day, read-out: TGI
[13] = Metabolic stability in human liver microsomes assessed as elimination half life incubated for 1 hr by LC-MS/MS analysis; type: ADME, Microsome; details: read-out: beta t1/2
[14] = Metabolic stability in monkey liver microsomes assessed as elimination half life incubated for 1 hr by LC-MS/MS analysis; type: ADME, Macaca mulatta, Microsome; details: rhesus monkey, read-out: beta t1/2
[15] = Metabolic stability in dog liver microsomes assessed as elimination half life incubated for 1 hr by LC-MS/MS analysis; type: ADME, Canis lupus familiaris, Microsome; details: read-out: beta t1/2
[16] = Metabolic stability in rat liver microsomes assessed as elimination half life incubated for 1 hr by LC-MS/MS analysis; type: ADME, Microsome; details: read-out: beta t1/2
[17] = Metabolic stability in human liver microsomes assessed as intrinsic clearance incubated for 1 hr by LC-MS/MS analysis; type: ADME, Microsome; details: read-out: CLH
[18] = Metabolic stability in monkey liver microsomes assessed as intrinsic clearance incubated for 1 hr by LC-MS/MS analysis; type: ADME, Macaca mulatta, Microsome; details: rhesus monkey, read-out: CLH
[19] = Metabolic stability in dog liver microsomes assessed as intrinsic clearance incubated for 1 hr by LC-MS/MS analysis; type: ADME, Canis lupus familiaris, Microsome; details: read-out: CLH
[20] = Metabolic stability in rat liver microsomes assessed as intrinsic clearance incubated for 1 hr by LC-MS/MS analysis; type: ADME, Microsome; details: read-out: CLH
[21] = Metabolic stability in human liver assessed as intrinsic clearance incubated for 1 hr by LC-MS/MS analysis; type: ADME, tissue-based; details: read-out: CLH
[22] = Metabolic stability in monkey liver assessed as intrinsic clearance incubated for 1 hr by LC-MS/MS analysis; type: ADME, tissue-based, Macaca mulatta; details: rhesus monkey, read-out: CLH
[23] = Metabolic stability in dog liver assessed as intrinsic clearance incubated for 1 hr by LC-MS/MS analysis; type: ADME, tissue-based, Canis lupus familiaris; details: read-out: CLH
[24] = Metabolic stability in rat liver assessed as intrinsic clearance incubated for 1 hr by LC-MS/MS analysis; type: ADME, tissue-based; details: read-out: CLH

CC(=O)c1c(C)[nH]c(-c2nc3cc(N4CCN(C)CC4)ccc3[nH]2)c1-c1ccccc1Cl
IC50 [1]: 438 nM

CCN(CC)c1ccc2[nH]c(-c3[nH]c(C)c(C(C)=O)c3C)nc2c1
inhibition at 1 µM [2]: 19.7%

CCc1c(-c2nc3cc(N4CCN(C)CC4)ccc3[nH]2)[nH]c(C)c1C(C)=O
IC50 [1]: 617 nM

CC(=O)c1c(C)[nH]c(-c2nc3cc(N4CCN(C)CC4)ccc3[nH]2)c1C1CCCCC1
inhibition [3]: 79%

COc1ccc(-c2c(-c3nc4cc(N5CCN(C)CC5)ccc4[nH]3)[nH]c(C)c2C(C)=O)cc1
IC50 [1]: 223 nM

CCS(=O)(=O)Nc1ccc(Oc2ccc(F)cc2F)c(-c2cn(C)c(=O)c3[nH]ccc23)c1 [MIVEBRESIB]
IC50 [4]: 11 nM

CC(=O)c1c(C)[nH]c(-c2nc3cc(N4CCN(C)CC4)ccc3[nH]2)c1-c1cnn(C)c1
inhibition at 1 µM [2]: 53%

CC(=O)c1c(C)[nH]c(-c2nc3cc(N4CCOCC4)ccc3[nH]2)c1C
inhibition at 1 µM [2]: 21.2%

CC(=O)c1c(C)[nH]c(-c2ccc3c4ccccc4n(C)c3c2)c1C
inhibition [3]: 84%

COc1ccc(-c2c(-c3nc4cc(N5CCN(C)CC5)ccc4[nH]3)[nH]c(C)c2C(C)=O)cc1F
IC50 [1]: 219 nM

COc1cccc(-c2c(-c3nc4cc(N5CCN(C)CC5)ccc4[nH]3)[nH]c(C)c2C(C)=O)c1
IC50 [1]: 284 nM

CC(=O)c1c(C)[nH]c(-c2nc3cc(N4CCN(C)CC4)ccc3[nH]2)c1-c1ccc(Cl)cc1
IC50 [1]: 291 nM

CC(=O)c1c(C)[nH]c(-c2nc3cc(N4CCN(C)CC4)ccc3[nH]2)c1-c1ccc2c(c1)OCO2
IC50 [1]: 161 nM

Cc1sc2c(c1C)C(c1ccc(Cl)cc1)=N[C@@H](CC(=O)Nc1ccc(O)cc1)c1nnc(C)n1-2 [BIRABRESIB]
GI50 [5]: 179 nM | GI50 [6]: 262 nM | GI50 [7]: 179 nM | GI50 [8]: 29.6 nM | GI50 [9]: 162 nM | GI50 [10]: 94.6 nM | GI50 [11]: 212 nM | inhibition in vivo at 20 mg/kg [12]: 63.5%

Cc1sc2c(c1C)C(c1ccc(Cl)cc1)=N[C@@H](CC(=O)OC(C)(C)C)c1nnc(C)n1-2
IC50 [1]: 157 nM

CC(=O)c1c(C)[nH]c(-c2nc3c([nH]2)=CCC(Nc2ccnc(Cl)n2)C=3)c1C (stereo not drawn)
inhibition [3]: 91.1%

CC(=O)c1c(C)[nH]c(-c2nc3cc(N4CCN(C)CC4)ccc3[nH]2)c1-c1ccc(C)cc1
IC50 [1]: 176 nM

CC(=O)c1c(C)[nH]c(-c2nc3cc(N4CCN(C)CC4)ccc3[nH]2)c1-c1ccc2c(c1)OCCO2
IC50 [1]: 157 nM

CC(=O)c1c(C)[nH]c(-c2nc3cc(N4CCOCC4)ccc3[nH]2)c1-c1ccccc1
IC50 [1]: 318 nM | half-life [13]: 61.4 min | half-life [14]: 31.6 min | half-life [15]: 44.6 min | half-life [16]: 20.4 min | microsomal CLint [17]: 22.6 µL/min/mg | microsomal CLint [18]: 43.8 µL/min/mg | microsomal CLint [19]: 31.1 µL/min/mg | microsomal CLint [20]: 68 µL/min/mg | CLint scaled [21]: 21.4 mL/min/kg | CLint scaled [22]: 63.1 mL/min/kg | CLint scaled [23]: 44.8 mL/min/kg | CLint scaled [24]: 122 mL/min/kg

CC(=O)c1c(C)[nH]c(-c2nc3cc(N4CCN(C)CC4)ccc3[nH]2)c1C(C)C
inhibition [3]: 98.9%

CCS(=O)(=O)N1CCN(c2ccc3[nH]c(-c4[nH]c(C)c(C(C)=O)c4C)nc3c2)CC1
IC50 [1]: 1640 nM

CC(=O)c1c(C)[nH]c(-c2nc3ccccc3s2)c1C
inhibition [3]: 73.6%

CC(=O)c1c(C)[nH]c(-c2nc3cc(N4CCN(C)CC4)ccc3[nH]2)c1C
IC50 [1]: 699 nM

CSc1ccc(-c2c(-c3nc4cc(N5CCN(C)CC5)ccc4[nH]3)[nH]c(C)c2C(C)=O)cc1
IC50 [1]: 187 nM

CC(=O)c1c(C)[nH]c(-c2nc3cc(N4CCN(C)CC4)ccc3[nH]2)c1-c1cccc(Cl)c1
IC50 [1]: 321 nM

CC(=O)c1c(C)[nH]c(-c2nc3cc(N4CCC(CO)CC4)ccc3[nH]2)c1C
IC50 [1]: 1560 nM

CC(=O)c1c(C)[nH]c(-c2ccc3cc[nH]c3c2)c1C
inhibition [3]: 79.5%

CC(=O)c1c(C)[nH]c(-c2nc3cc(N4CCN(C)CC4)ccc3[nH]2)c1-c1ccc2ccccc2c1
IC50 [1]: 556 nM

CC(=O)c1c(C)[nH]c(-c2nc3cc(N4CCCCC4)ccc3[nH]2)c1C
IC50 [1]: 1810 nM

CC(=O)c1c(C)[nH]c(-c2cnc3ccccc3c2)c1C
inhibition [3]: 85.5%

CC(=O)c1c(C)[nH]c(-c2nc3cc(N4CCN(C)CC4)ccc3[nH]2)c1-c1ccc(N(C)C)cc1
IC50 [1]: 192 nM

COc1ccccc1-c1c(-c2nc3cc(N4CCN(C)CC4)ccc3[nH]2)[nH]c(C)c1C(C)=O
inhibition at 1 µM [2]: 25.3%

CCOc1ccc(-c2c(-c3nc4cc(N5CCN(C)CC5)ccc4[nH]3)[nH]c(C)c2C(C)=O)cc1
IC50 [1]: 192 nM

COc1ccc(-c2c(-c3nc4cc(N5CCN(C)CC5)ccc4[nH]3)[nH]c(C)c2C(C)=O)cc1OC
IC50 [1]: 426 nM
